Measured values as given in article PMC5826148, “Whole-Cell Screen of Fragment Library Identifies Gut Microbiota Metabolite Indole Propionic Acid as Antitubercular” (Antimicrobial Agents and Chemotherapy, 2018).
Converted amounts (≈) assume the structure as drawn.

Legend:
[1] = test system: M. tuberculosis H37Rv; experiment: M. tuberculosis growth inhibition dose-response (MIC50), turbidity readout; type: cell-based, Mycobacterium tuberculosis; details: Mycobacterium tuberculosis, 240 h; H37Rv, 10 days; read-out: Antibacterial activity (MIC50) M. tuberculosis
[2] = test system: M. tuberculosis H37Rv; experiment: Bactericidal activity, CFU enumeration on agar after treatment; type: cell-based, Mycobacterium tuberculosis; details: Mycobacterium tuberculosis, H37RV; M. tuberculosis; 1 mM; log CFU/ml reduction from initial inoculum; read-out: Bactericidal activity (log reduction) at 1 mM
[3] = test system: M. tuberculosis; experiment: Growth inhibition in acidic medium (pH 6.2); type: cell-based, Mycobacterium tuberculosis; details: Mycobacterium tuberculosis, pH 6.2; read-out: Activity (MIC50) in acidic medium (pH 6.2)
[4] = test system: M. bovis BCG Pasteur; experiment: microbe, parasite or virus in culture; type: cell-based; details: Mycobacterium tuberculosis variant bovis BCG, BCG, read-out: Antibacterial activity (MIC50) M. bovis BCG
[5] = test system: M. smegmatis; experiment: Spectrum of activity: M. smegmatis growth inhibition; type: cell-based; details: Mycolicibacterium smegmatis, 24 h; 1 day; read-out: Antibacterial activity (MIC50) M. smegmatis
[6] = test system: M. avium; experiment: Spectrum of activity: M. avium growth inhibition; type: cell-based; details: Mycobacterium avium, 96 h; 4 days; read-out: Antibacterial activity (MIC50) M. avium
[7] = test system: M. abscessus; experiment: Spectrum of activity: M. abscessus growth inhibition; type: cell-based; details: Mycobacteroides abscessus, 72 h; 3 days; read-out: Antibacterial activity (MIC50) M. abscessus
[8] = test system: Staphylococcus aureus; experiment: Spectrum of activity: S. aureus growth inhibition; type: cell-based; details: Staphylococcus aureus; LB medium, overnight; read-out: Antibacterial activity (MIC50) S. aureus
[9] = test system: Escherichia coli; experiment: Spectrum of activity: E. coli growth inhibition; type: cell-based; details: Escherichia coli; LB medium, overnight; read-out: Antibacterial activity (MIC50) E. coli
[10] = test system: human red blood cells (RBCs); experiment: Red blood cell lysis assay; details: hemolysis
[11] = Cytotoxicity assay, THP-1 cells (CellTiter 96 AQueous One); details: human
[12] = Cytotoxicity assay, HepG2 cells (CellTiter 96 AQueous One); details: human, HepG2 cells

| SMILES | MIC50 [1] | log reduction at 1000 µM [2] | MIC50 [3] | MIC50 [4] | MIC50 [5] | MIC50 [6] | MIC50 [7] | MIC50 [8] | MIC50 [9] | RBCs HC50 [10] | CC50 at 24 h [11] | CC50 at 24 h [12] |
| --- | --- | --- | --- | --- | --- | --- | --- | --- | --- | --- | --- | --- |
| Cc1oc(-c2ccc(Cl)cc2)cc1C(=O)N(C)C [Fragment F8, 5-(4-Chlorophenyl)-N,N,2-trimethyl-3-furamide] | 135 µM (≈ 35.6 µg/mL) | 1.44 | 93 µM (≈ 24.5 µg/mL) | 189 µM (≈ 49.8 µg/mL) | 233 µM (≈ 61.4 µg/mL) | 169 µM (≈ 44.6 µg/mL) | 322 µM (≈ 84.9 µg/mL) | > 500 µM | > 500 µM | 433 µM | 234 µM | 589 µM |
| Nc1ccc2oc3c(c2c1)CCCC3 [Fragment F5, 6,7,8,9-Tetrahydrodibenzo [b,d]furan-2-amine] | 245 µM (≈ 45.9 µg/mL) | 1.11 | 62 µM (≈ 11.6 µg/mL) | 488 µM (≈ 91.4 µg/mL) | > 500 µM | > 500 µM | > 500 µM | > 500 µM | > 500 µM | >1,000 μM | > 1000 µM | > 1000 µM |
| O=C(O)c1csc2ccc(Cl)cc12 [Fragment F25, 5-Chloro-1-benzothiophene-3-carboxylic acid] | 319 µM (≈ 67.8 µg/mL) | 2.1 | 94 µM (≈ 20 µg/mL) | 367 µM (≈ 78 µg/mL) | 98 µM (≈ 20.8 µg/mL) | 489 µM (≈ 104 µg/mL) | 257 µM (≈ 54.7 µg/mL) | > 500 µM | > 500 µM | 945 µM | 876 µM | 765 µM |
| Cc1ncc(C(N)=S)[nH]1 [Fragment F3, 2-Methyl-1H-imidazole-4-carbothioamide] | 105 µM (≈ 14.8 µg/mL) | 1.87 | 98 µM (≈ 13.8 µg/mL) | 134 µM (≈ 18.9 µg/mL) | > 500 µM | 198 µM (≈ 28 µg/mL) | 304 µM (≈ 42.9 µg/mL) | > 500 µM | > 500 µM | >1,000 μM | 850 µM | > 1000 µM |
| Cc1cc(C(=O)O)c(C)n1Cc1cccs1 [Fragment F16, 2,5-Dimethyl-1-(2-thienylmethyl)-1H-pyrrole-3-carboxylic acid] | 247 µM (≈ 58.1 µg/mL) | 1.89 | 345 µM (≈ 81.2 µg/mL) | > 500 µM | > 500 µM | > 500 µM | > 500 µM | > 500 µM | > 500 µM | >1,000 μM | 724 µM | 766 µM |
| O=c1cc(C(F)(F)F)c2ccc(O)cc2o1 [Fragment F2, 7-Hydroxy-4-(trifluoromethyl)-2H-chromen-2-one] | 213 µM (≈ 49 µg/mL) | 1.1 | 179 µM (≈ 41.2 µg/mL) | 329 µM (≈ 75.7 µg/mL) | 476 µM (≈ 110 µg/mL) | > 500 µM | > 500 µM | 198 µM (≈ 45.6 µg/mL) | 432 µM (≈ 99.4 µg/mL) | >1,000 μM | 879 µM | 987 µM |
| CSc1cc(-c2ccc(F)cc2)n[nH]1 [Fragment F11, 3-(4-Fluorophenyl)-5-(methylsulfanyl)-1H-pyrazole] | 195 µM (≈ 40.6 µg/mL) | 3.06 | 140 µM (≈ 29.2 µg/mL) | 308 µM (≈ 64.1 µg/mL) | 398 µM (≈ 82.9 µg/mL) | 498 µM (≈ 104 µg/mL) | 271 µM (≈ 56.4 µg/mL) | > 500 µM | 344 µM (≈ 71.6 µg/mL) | >1,000 μM | 765 µM | 945 µM |
| Clc1ccc2nc(N3CCCNCC3)sc2c1 [Fragment F12, 6-Chloro-2-(1,4-diazepan-1-yl)-1,3-benzothiazole] | 198 µM (≈ 53 µg/mL) | 2.8 | 104 µM (≈ 27.8 µg/mL) | 137 µM (≈ 36.7 µg/mL) | 221 µM (≈ 59.2 µg/mL) | 157 µM (≈ 42 µg/mL) | 351 µM (≈ 94 µg/mL) | > 500 µM | 324 µM (≈ 86.8 µg/mL) | >1,000 μM | 124 µM | 187 µM |
| NCc1cccc(N2CCCCC2)n1 [Fragment F17, [6-(Piperidin-1-yl)pyridin-2-yl]methanamine] | 250 µM (≈ 47.8 µg/mL) | 3.07 | 245 µM (≈ 46.9 µg/mL) | 345 µM (≈ 66 µg/mL) | > 500 µM | 271 µM (≈ 51.8 µg/mL) | > 500 µM | 104 µM (≈ 19.9 µg/mL) | > 500 µM | >1,000 μM | 489 µM | 455 µM |
| O=C(O)c1ccc(-c2cccs2)s1 [Fragment F20, [2,2′-Bithiophene]-5-carboxylic acid] | 271 µM (≈ 57 µg/mL) | 1.98 | 170 µM (≈ 35.7 µg/mL) | 457 µM (≈ 96.1 µg/mL) | 289 µM (≈ 60.8 µg/mL) | > 500 µM | 267 µM (≈ 56.1 µg/mL) | > 500 µM | > 500 µM | >1,000 μM | 974 µM | 765 µM |
| Cc1ccc(-c2cc(C(=O)O)c(C)o2)cc1 [Fragment F24, 2-Methyl-5-(4-methylphenyl)-3-furoic acid] | 316 µM (≈ 68.3 µg/mL) | 2.02 | 120 µM (≈ 25.9 µg/mL) | 193 µM (≈ 41.7 µg/mL) | > 500 µM | 458 µM (≈ 99 µg/mL) | > 500 µM | > 500 µM | > 500 µM | >1,000 μM | 887 µM | 984 µM |
| OCc1csc(-c2ccc(C(F)(F)F)cc2)n1 [Fragment F28, {2-[4-(Trifluoromethyl)phenyl]-1,3-thiazol-4-yl}methanol] | 434 µM (≈ 113 µg/mL) | 1.21 | 215 µM (≈ 55.7 µg/mL) | 398 µM (≈ 103 µg/mL) | 235 µM (≈ 60.9 µg/mL) | 325 µM (≈ 84.3 µg/mL) | 253 µM (≈ 65.6 µg/mL) | > 500 µM | > 500 µM | 786 µM | 940 µM | > 1000 µM |
| N#Cc1ccc(O)cc1F [Fragment F22, 2-Fluoro-4-hydroxybenzonitrile] | 300 µM (≈ 41.1 µg/mL) | 1.6 | 140 µM (≈ 19.2 µg/mL) | 420 µM (≈ 57.6 µg/mL) | 487 µM (≈ 66.8 µg/mL) | 317 µM (≈ 43.5 µg/mL) | 401 µM (≈ 55 µg/mL) | 343 µM (≈ 47 µg/mL) | 202 µM (≈ 27.7 µg/mL) | >1,000 μM | 677 µM | 879 µM |
| Cc1n[nH]c(C)c1Oc1ccc(Cl)cc1 [Fragment F15, 4-(4-Chlorophenoxy)-3,5-dimethyl-1H-pyrazole] | 235 µM (≈ 52.3 µg/mL) | 2.43 | 157 µM (≈ 35 µg/mL) | 156 µM (≈ 34.7 µg/mL) | 198 µM (≈ 44.1 µg/mL) | 174 µM (≈ 38.7 µg/mL) | 256 µM (≈ 57 µg/mL) | 79 µM (≈ 17.6 µg/mL) | > 500 µM | 453 µM | 345 µM | 676 µM |
